# Results reported in patent publication US10610520B2, “Heterocyclic compound” (Takeda Pharmaceutical Company Limited, priority 2016, dated 2020).
# Target: T1, His-hMAGL (recombinant polyhistidine tagged human MAGL protein) (Homo sapiens, UniProt Q99685)
# T1 construct: made in house; host or cells: E. coli BL21(DE3)
# T1 sequence (Q99685 1-303): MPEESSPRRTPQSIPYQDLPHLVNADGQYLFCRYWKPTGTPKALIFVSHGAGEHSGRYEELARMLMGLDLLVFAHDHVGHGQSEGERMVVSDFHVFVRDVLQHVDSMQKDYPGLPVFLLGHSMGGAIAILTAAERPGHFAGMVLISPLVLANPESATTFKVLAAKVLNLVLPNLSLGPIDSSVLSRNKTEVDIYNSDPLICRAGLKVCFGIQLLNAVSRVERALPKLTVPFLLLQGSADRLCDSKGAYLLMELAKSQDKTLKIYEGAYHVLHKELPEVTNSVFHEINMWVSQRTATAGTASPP
# Assay: Measurement of MAGL inhibitory activity (arachidonic acid production from 2-arachidonylglycerol, RapidFire-mass spectrometry)
# Assay type: biochemical
# Settings: MAGL inhibitory rate, test compound 10 μM, 60 min preincubation, 2-arachidonylglycerol substrate
# Procedure, shortened: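 Arachidonic acid formed was quantified by online solid-phase extraction and triple-quadrupole MS in negative SRM mode against a d8 internal standard. Reaction: recombinant His-hMAGL (7.5 ng/mL, pH 7.5 Tris buffer with Triton X-100 and BSA) plus 2-AG (5 μL of 150 μM stock) for 10 min at room temperature, quenched with 2% formic acid. Percent inhibition corrected for enzyme-free background.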
row,SMILES,inhibition at 10 µM [%]
1,"O=C1CCC2(CN(C(=O)c3sc4cc(-c5cccc(Cl)c5)ccc4c3Cl)C2)N1 [Example 190, 2-((3-chloro-6-(3-chlorophenyl)-1-benzothiophen-2-yl)carbonyl)-2,5-diazaspiro[3.4]octan-6-one]",99
2,"O=C1CCC2(CN(C(=O)c3ccc(-c4ccccc4)cc3F)C2)N1 [Example 31, 2-((3-fluorobiphenyl-4-yl)carbonyl)-2,5-diazaspiro[3.4]octan-6-one]",84
3,"O=C1CCC2(CN(C(=O)c3ccc(-c4ccc(C(F)(F)F)cc4Cl)cc3)C2)N1 [Example 47, 2-((2′-chloro-4′-(trifluoromethyl)biphenyl-4-yl)carbonyl)-2,5-diazaspiro[3.4]octan-6-one]",96
4,"O=C1CCC2(CN(C(=O)c3ccc(-c4cccc(C(F)(F)F)c4Cl)cc3)C2)N1 [Example 51, 2-((2′-chloro-3′-(trifluoromethyl)biphenyl-4-yl)carbonyl)-2,5-diazaspiro[3.4]octan-6-one]",99
5,"O=C1CCC2(CN(C(=O)c3ccc(-c4cc(C(F)(F)F)cc(C(F)(F)F)c4)cc3)C2)N1 [Example 48, 2-((3′,5′-bis(trifluoromethyl)biphenyl-4-yl)carbonyl)-2,5-diazaspiro[3.4]octan-6-one]",98
6,"Cc1cccc(-c2ccc(C(=O)N3CC4(CCC(=O)N4)C3)cc2)c1C [Example 89, 2-((2′,3′-dimethylbiphenyl-4-yl)carbonyl)-2,5-diazaspiro[3.4]octan-6-one]",96
7,"CC(C)c1ccccc1-c1ccc2c(Cl)c(C(=O)N3CC4(CCC(=O)N4)C3)sc2c1 [Example 189, 2-((3-chloro-6-(2-isopropylphenyl)-1-benzothiophen-2-yl)carbonyl)-2,5-diazaspiro[3.4]octan-6-one]",100
8,"O=C1CCC2(CN(C(=O)c3ccc(-c4cccc(Cl)c4)cc3)C2)N1 [Example 86, 2-((3′-chlorobiphenyl-4-yl)carbonyl)-2,5-diazaspiro[3.4]octan-6-one]",97
9,"O=C1CCC2(CN(C(=O)c3sc4cc(-c5cccc(F)c5)ccc4c3Cl)C2)N1 [Example 37, 2-((3-chloro-6-(3-fluorophenyl)-1-benzothiophen-2-yl)carbonyl)-2,5-diazaspiro[3.4]octan-6-one]",99
10,"O=C1CCC2(CN(C(=O)c3ccc(-c4cccc(C(F)(F)F)c4F)cc3)C2)N1 [Example 49, 2-((2′-fluoro-3′-(trifluoromethyl)biphenyl-4-yl)carbonyl)-2,5-diazaspiro[3.4]octan-6-one]",99
11,"O=C1CCC2(CN(C(=O)c3ccc(-c4ccc5sc(C(F)(F)F)nc5c4)cc3)C2)N1 [Example 65, 2-(4-(2-(trifluoromethyl)-1,3-benzothiazol-5-yl)benzoyl)-2,5-diazaspiro[3.4]octan-6-one]",85
12,"Cc1c(F)cccc1-c1ccc2c(Cl)c(C(=O)N3CC4(CCC(=O)N4)C3)sc2c1 [Example 204, 2-((3-chloro-6-(3-fluoro-2-methylphenyl)-1-benzothiophen-2-yl)carbonyl)-2,5-diazaspiro[3.4]octan-6-one]",100
13,"Cc1cccc(-c2ccc3c(Cl)c(C(=O)N4CC5(CCC(=O)N5)C4)sc3c2)c1F [Example 208, 2-((3-chloro-6-(2-fluoro-3-methylphenyl)-1-benzothiophen-2-yl)carbonyl)-2,5-diazaspiro[3.4]octan-6-one]",100
14,"O=C1CCC2(CN(C(=O)c3sc4cc(-c5cccnc5C(F)(F)F)ccc4c3Cl)C2)N1 [Example 230, 2-((3-chloro-6-(2-(trifluoromethyl)pyridin-3-yl)-1-benzothiophen-2-yl)carbonyl)-2,5-diazaspiro[3.4]octan-6-one]",100
15,"O=C1CCC2(CN(C(=O)c3cccc(C(F)(F)c4ccccc4)c3)C2)N1 [Example 27, 2-(3-(difluoro(phenyl)methyl)benzoyl)-2,5-diazaspiro[3.4]octan-6-one]",94
16,"O=C1CCC2(CN(C(=O)c3cc4cccc(Br)c4s3)C2)N1 [Example 146, 2-((7-bromo-1-benzothiophen-2-yl)carbonyl)-2,5-diazaspiro[3.4]octan-6-one]",90
17,"O=C1CCC2(CN(C(=O)c3ccc(OCc4ccccc4)cc3)C2)N1 [Example 6, 2-(4-(benzyloxy)benzoyl)-2,5-diazaspiro[3.4]octan-6-one]",87
18,"O=C1CCC2(CN(C(=O)N3CC(COc4ccc(C(F)(F)F)cc4F)C3)C2)N1 [Example 8, 2-((3-((2-fluoro-4-(trifluoromethyl)phenoxy)methyl)azetidin-1-yl)carbonyl)-2,5-diazaspiro[3.4]octan-6-one]",100
19,"O=C1CCC2(CN(C(=O)c3ccc(-c4cc(C5CC5)ccc4F)cc3)C2)N1 [Example 53, 2-((5′-cyclopropyl-2′-fluorobiphenyl-4-yl)carbonyl)-2,5-diazaspiro[3.4]octan-6-one]",99
20,"O=C1CCC2(CN(C(=O)c3sc4cc(C(F)(F)F)ccc4c3Cl)C2)N1 [Example 20, 2-((3-chloro-6-(trifluoromethyl)-1-benzothiophen-2-yl)carbonyl)-2,5-diazaspiro[3.4]octan-6-one]",104
21,"O=C1CCC2(CN(C(=O)c3ccc(-c4c(F)cccc4F)cc3)C2)N1 [Example 76, 2-((2′,6′-difluorobiphenyl-4-yl)carbonyl)-2,5-diazaspiro[3.4]octan-6-one]",85

# The next lines start with the values.
row,inhibition at 10 µM [%],SMILES
1,101,"O=C1NC2(CO1)CN(C(=O)c1sc3c(Cl)c(OC(F)(F)F)ccc3c1Cl)C2 [Example 290, 2-((3,7-dichloro-6-(trifluoromethoxy)-1-benzothiophen-2-yl)carbonyl)-7-oxa-2,5-diazaspiro[3.4]octan-6-one]"
2,100,"O=C1NC2(CO1)CN(C(=O)c1sc3c(C(F)(F)F)cccc3c1OCC(F)(F)F)C2 [Example 271, 2-((3-(2,2,2-trifluoroethoxy)-7-(trifluoromethyl)-1-benzothiophen-2-yl)carbonyl)-7-oxa-2,5-diazaspiro[3.4]octan-6-one]"
3,99,"O=C1COCC2(CN(C(=O)c3sc4cc(C(F)(F)F)ccc4c3Cl)C2)N1 [Example 242, 2-((3-chloro-6-(trifluoromethyl)-1-benzothiophen-2-yl)carbonyl)-8-oxa-2,5-diazaspiro[3.5]nonan-6-one]"
4,99,"O=C1NC2(CO1)CN(C(=O)c1ccc(-c3cccc(C4(C(F)(F)F)CC4)c3)cc1)C2 [Example 344, 2-((3′-(1-(trifluoromethyl)cyclopropyl)biphenyl-4-yl)carbonyl)-7-oxa-2,5-diazaspiro[3.4]octan-6-one]"
5,101,"O=C1NC2(CO1)CN(C(=O)c1sc3cc(C4CC4)cc(F)c3c1C1CC1)C2 [Example 312, 2-((3,6-dichloropropyl-4-fluoro-1-benzothiophen-2-yl)carbonyl)-7-oxa-2,5-diazaspiro[3.4]octan-6-one]"
6,101,"O=C1NC2(CO1)CN(C(=O)c1sc3cc(C(F)F)ccc3c1Cl)C2 [Example 278, 2-((3-chloro-6-(difluoromethyl)-1-benzothiophen-2-yl)carbonyl)-7-oxa-2,5-diazaspiro[3.4]octan-6-one]"
7,100,"COc1cc(F)c2c(Cl)c(C(=O)N3CC4(COC(=O)N4)C3)sc2c1Cl [Example 294, 2-((3,7-dichloro-4-fluoro-6-methoxy-1-benzothiophen-2-yl)carbonyl)-7-oxa-2,5-diazaspiro[3.4]octan-6-one]"
8,98,"O=C1CCC2(CN(C(=O)c3sc4cc(OC(F)(F)F)ccc4c3C(F)(F)F)C2)N1 [Example 263, 2-((6-(trifluoromethoxy)-3-(trifluoromethyl)-1-benzothiophen-2-yl)carbonyl)-2,5-diazaspiro[3.4]octan-6-one]"
9,99,"O=C1NC2(CO1)CN(C(=O)c1sc3cc(F)ccc3c1Cl)C2 [Example 361, 2-((3-chloro-6-fluoro-1-benzothiophen-2-yl)carbonyl)-7-oxa-2,5-diazaspiro[3.4]octan-6-one]"
10,100,"O=C1NC2(CO1)CN(C(=O)c1sc3cc(-c4c(F)cccc4F)ccc3c1Cl)C2 [Example 345, 2-((3-chloro-6-(2,6-difluorophenyl)-1-benzothiophen-2-yl)carbonyl)-7-oxa-2,5-diazaspiro[3.4]octan-6-one]"
11,100,"O=C1NC2(CO1)CN(C(=O)c1sc3c(F)c(OC(F)(F)F)ccc3c1C(F)F)C2 [Example 360, 2-((3-(difluoromethyl)-7-fluoro-6-(trifluoromethoxy)-1-benzothiophen-2-yl)carbonyl)-7-oxa-2,5-diazaspiro[3.4]octan-6-one]"

# Same assay, conditions: MAGL inhibitory rate, test compound 10 μM, 60 min preincubation, 2-arachidonylglycerol substrate; 10 µM
row,% inhibition (10 μM) [%],SMILES
1,99,"O=C1NC2(CCN(C(=O)c3sc4cc(Cl)cc(Cl)c4c3Cl)C2)CO1 (stereo not shown) [Example 327, 7-((3,4,6-trichloro-1-benzothiophen-2-yl)carbonyl)-3-oxa-1,7-diazaspiro[4.4]nonan-2-one]"
2,96,"Cc1c(OC(F)(F)F)ccc2c(Cl)c(C(=O)N3CCC4(COC(=O)N4)C3)sc12 (stereo not shown) [Example 330, 7-((3-chloro-7-methyl-6-(trifluoromethoxy)-1-benzothiophen-2-yl)carbonyl)-3-oxa-1,7-diazaspiro[4.4]nonan-2-one]"
